Patent publication US7514432B2, “Compounds and methods of treating cell proliferative diseases, retinopathies and arthritis” (Exonhit Therapeutics SA, priority 2003, dated 2009)

System: quiescent Swiss 3T3 cells
Assay: Compounds' effect on the actin cytoskeleton (Rac-induced ruffles)
Assay type: cell-based
Conditions: 30 min pre-treatment, subtoxic doses; osmotic shock 10 min (50% H2O)
Protocol: FIG. 1: Study of compounds effect on the actin cytoskeleton. Quiescent Swiss 3T3 cells were treated for 30 minutes with various concentrations of the compounds and were then submitted to osmotic shock by 10 min. incubation in a medium containing 50% H2O. Cells were subsequently fixed, permeabilized and labeled with Phalloidin TRITC. 100 to 200 cells were counted under a microscope, and the percentage of cells displaying lamellipodia and ruffles was evaluated.
Quiescence of Swiss 3T3 cells: Cells are seeded at high density on coverslips in 5% FCS medium (special weak FCS). When cells become quiescent (after 6-10 days of culture), the medium is removed (a few microliters remaining in the well) and replaced with serum free medium. Cells are placed in the incubator overnight. […]
Immunofluorescence • Fixation and permeabilization: Medium is aspirated from the culture wells and replaced with fixation buffer (BRB80: 80 mM KPipes pH 6.8, 2 mM MgCl2, 5 mM EGTA, 0.3% paraformaldehyde). […] Mounting is allowed to dry at 37° C. for 1 h. • Quantification of the effect of the compounds: The total number of cells is counted under the microscope (at least three different fields, e.g. between 100 and 200 cells). The number of cells bearing the morphological features of interest is evaluated. The percentage of cells bearing the morphological features of interest is then calculated.

SMILES | formation of ruffles induced by Rac after osmotic shock
Cl.Cl.O=c1cc(CN2CCOCC2)occ1OCCCCCSc1ccnc2cc(C(F)(F)F)ccc12 [EHT 1864, 5-(5-(7-(Trifluoromethyl)quinolin-4-ylthio)pentyloxy)-2-(morpholinomethyl)-4H-pyran-4-one dihydrochloride] | dose-dependently prevents formation of ruffles
CN1CCN(Cc2cc(=O)c(OCCCCCSc3ccnc4cc(C(F)(F)F)ccc34)co2)CC1.Cl.Cl.Cl [EHT 9241, 5-(5-(7-(Trifluoromethyl)quinolin-4-ylthio)pentyloxy)-2-((4-methylpiperazin-1-yl)methyl)-4H-pyran-4-one trihydrochloride] | dose-dependently prevents formation of ruffles
